Data from ChEMBL document CHEMBL1147709, “Arylanthranilodinitriles: a new biaryl class of antileishmanial agents” (2006).

Columns and labels:
Type in all cases: functional
Leishmania donovani [1] = assay: Antileishmanial activity against Leishmania donovani promastigotes at 8 ug/ml
Leishmania donovani [2] = assay: Antileishmanial activity against Leishmania donovani promastigotes at 4 ug/ml
Leishmania donovani [3] = assay: Antileishmanial activity against Leishmania donovani amastigotes at 20 ug/ml
Leishmania donovani [4] = assay: Antileishmanial activity against Leishmania donovani promastigotes at 2 ug/ml

COc1ccc(-c2c(C)c(C#N)c(N)c(C#N)c2SC)c(OC)c1
inhibition at 8 µg/mL (Leishmania donovani [1]): 59% | inhibition at 4 µg/mL (Leishmania donovani [2]): 36% | inhibition at 20 µg/mL (Leishmania donovani [3]): 56%

CSc1c(C#N)c(N)c(C#N)c(C)c1-c1ccccc1F
inhibition at 8 µg/mL (Leishmania donovani [1]): 60% | inhibition at 4 µg/mL (Leishmania donovani [2]): 37% | inhibition at 20 µg/mL (Leishmania donovani [3]): 61%

CSc1c(C#N)c(N)c(C#N)c(C)c1-c1ccc(C(F)(F)F)cc1
inhibition at 8 µg/mL (Leishmania donovani [1]): 83% | inhibition at 4 µg/mL (Leishmania donovani [2]): 67% | inhibition at 20 µg/mL (Leishmania donovani [3]): 70%

N=C(N)c1ccc(OCCCCCOc2ccc(C(=N)N)cc2)cc1 [PENTAMIDINE]
inhibition at 2 µg/mL (Leishmania donovani [4]): 71% | inhibition at 20 µg/mL (Leishmania donovani [3]): 48%

COc1ccc(-c2c(C)c(C#N)c(N)c(C#N)c2SC)cc1OC
inhibition at 8 µg/mL (Leishmania donovani [1]): 69% | inhibition at 4 µg/mL (Leishmania donovani [2]): 60% | inhibition at 20 µg/mL (Leishmania donovani [3]): 53%

COc1ccc(-c2c(C)c(SC)c(C#N)c(N)c2C#N)cc1
inhibition at 8 µg/mL (Leishmania donovani [1]): 53% | inhibition at 4 µg/mL (Leishmania donovani [2]): 31% | inhibition at 20 µg/mL (Leishmania donovani [3]): 25%

CSc1c(C#N)c(N)c(C#N)c(C)c1-c1ccc(F)cc1
inhibition at 8 µg/mL (Leishmania donovani [1]): 65% | inhibition at 4 µg/mL (Leishmania donovani [2]): 43% | inhibition at 20 µg/mL (Leishmania donovani [3]): 62%

CSc1c(C)c(-c2ccccc2)c(C#N)c(N)c1C#N
inhibition at 8 µg/mL (Leishmania donovani [1]): 48% | inhibition at 4 µg/mL (Leishmania donovani [2]): 25% | inhibition at 20 µg/mL (Leishmania donovani [3]): 23%

CSc1c(C)c(-c2ccc(Cl)cc2)c(C#N)c(N)c1C#N
inhibition at 8 µg/mL (Leishmania donovani [1]): 50% | inhibition at 4 µg/mL (Leishmania donovani [2]): 46% | inhibition at 20 µg/mL (Leishmania donovani [3]): 10%
